Laboratory results from patent US20120029187A1, “HALOALKYLSULFONANILIDE DERIVATIVE” (Nissan Chemical Industries, Ltd., priority 2009, published 2012).

Columns and labels:
Type in all cases: in vivo
barnyardgrass [1] = assay: Test Example 4: herbicidal effect in foliage treatment; details: dose 6.3 g/a, three weeks after application
How it was run: (§1)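 A uniform foliar spray of emulsifiable concentrate, diluted with water to give the stated g/a dose, was applied to plants raised for 14 days from seed in sterilized diluvial soil at 25 to 30° C. Herbicidal effects were scored three weeks later.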

large crabgrass [2] = assay: as above; details: dose 6.3 g/a, three weeks after application
How it was run: as §1

water foxtail [3] = assay: as above; details: dose 6.3 g/a, three weeks after application
How it was run: as §1

beadstraw = assay: as above; details: dose 6.3 g/a, three weeks after application
How it was run: as §1

redroot pigweed [4] = assay: as above; details: dose 6.3 g/a, three weeks after application
How it was run: as §1

common lambsquater [5] = assay: as above; details: dose 6.3 g/a, three weeks after application
How it was run: as §1

Italian ryegrass [6] = assay: as above; details: dose 6.3 g/a, three weeks after application
How it was run: as §1

giant foxtail [7] = assay: as above; details: dose 6.3 g/a, three weeks after application
How it was run: as §1

common chickweed [8] = assay: as above; details: dose 6.3 g/a, three weeks after application
How it was run: as §1

common ragweed [9] = assay: as above; details: dose 6.3 g/a, three weeks after application
How it was run: as §1

wild oat [10] = assay: as above; details: dose 6.3 g/a, three weeks after application
How it was run: as §1

barnyardgrass [11] = assay: Test Example 3: herbicidal effects in soil treatment; details: dose 6.3 g/a
How it was run: (§2)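 Seeds were sown in sterilized diluvial soil and covered with about 1.5 cm of soil. Compounds, formulated as emulsifiable concentrates and diluted with water, were sprayed evenly over the soil surface at set doses in g/a. Herbicidal effect was scored on a rating scale three weeks later.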

large crabgrass [12] = assay: as above; details: dose 6.3 g/a
How it was run: as §2

water foxtail [13] = assay: as above; details: dose 6.3 g/a
How it was run: as §2

redroot pigweed [14] = assay: as above; details: dose 6.3 g/a
How it was run: as §2

common lambsquater [15] = assay: as above; details: dose 6.3 g/a
How it was run: as §2

Italian ryegrass [16] = assay: as above; details: dose 6.3 g/a
How it was run: as §2

giant foxtail [17] = assay: as above; details: dose 6.3 g/a
How it was run: as §2

common chickweed [18] = assay: as above; details: dose 6.3 g/a
How it was run: as §2

common ragweed [19] = assay: as above; details: dose 6.3 g/a
How it was run: as §2

wild oat [20] = assay: as above; details: dose 6.3 g/a
How it was run: as §2

barnyardgrass [21] = assay: Test Example 2: herbicidal effects during the vegetation period under submerged conditions; details: treatment during the vegetation period under submerged conditions; dose 2.52 g/a
How it was run: (§3)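 Barnyardgrass, bulrush and ducksalad were co-sown in alluvial soil flooded to 4 cm and grown in a greenhouse at 25 to 30° C. At the 1- or 2-leaf stage, water-diluted emulsifiable concentrates went onto the water surface at set doses (g/a). Herbicidal effect was scored three weeks later on a graded scale.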

bulrush [22] = assay: as above; details: treatment during the vegetation period under submerged conditions; dose 2.52 g/a
How it was run: as §3

ducksalad [23] = assay: as above; details: treatment during the vegetation period under submerged conditions; dose 2.52 g/a
How it was run: as §3

barnyardgrass [24] = assay: Test Example 1: herbicidal effects in preemergence treatment under submerged conditions; details: dose 2.52 g/a
How it was run: (§4)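 Submerged conditions, 4 cm water over alluvial soil. Weeds sown and 2.5-leaf rice transplanted; compound applied preemergence to water surface, doses in g per are. Greenhouse, 25 to 30° C., three weeks, then 0–5 mortality rating.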

bulrush [25] = assay: as above; details: dose 2.52 g/a
How it was run: as §4

ducksalad [26] = assay: as above; details: dose 2.52 g/a
How it was run: as §4

SMILES: CC1(C)CC(=O)N(Cc2ccccc2NS(=O)(=O)C(F)(F)F)CO1 [II-17, 6,6-dimethyl-3-(2-trifluoromethanesulfonylaminobenzyl)-1,3-oxazinan-4-one]
- A: barnyardgrass, herbicidal effect (barnyardgrass [1]): 5 (mortality of 90% or above (nearly complete death))
- D: large crabgrass, herbicidal effect (large crabgrass [2]): 5 (mortality of 90% or above (nearly complete death))
- G: water foxtail, herbicidal effect (water foxtail [3]): 5 (mortality of 90% or above (nearly complete death))
- O: beadstraw, herbicidal effect (beadstraw): 5 (mortality of 90% or above (nearly complete death))
- K: redroot pigweed, herbicidal effect (redroot pigweed [4]): 1 (mortality of at least 5% and less than 20%)
- L: common lambsquater, herbicidal effect (common lambsquater [5]): 4 (mortality of at least 70% and less than 90%)
- H: Italian ryegrass, herbicidal effect (Italian ryegrass [6]): 4 (mortality of at least 70% and less than 90%)
- E: giant foxtail, herbicidal effect (giant foxtail [7]): 5 (mortality of 90% or above (nearly complete death))
- N: common chickweed, herbicidal effect (common chickweed [8]): 4 (mortality of at least 70% and less than 90%)
- J: common ragweed, herbicidal effect (common ragweed [9]): 5 (mortality of 90% or above (nearly complete death))
- F: wild oat, herbicidal effect (wild oat [10]): 0 (mortality of less than 5% (almost ineffective))
- A: barnyardgrass, herbicidal effect (evaluation scale 0-5) (barnyardgrass [11]): 5 (mortality of 90% or above (nearly complete death))
- D: large crabgrass, herbicidal effect (evaluation scale 0-5) (large crabgrass [12]): 5 (mortality of 90% or above (nearly complete death))
- G: water foxtail, herbicidal effect (evaluation scale 0-5) (water foxtail [13]): 5 (mortality of 90% or above (nearly complete death))
- K: redroot pigweed, herbicidal effect (evaluation scale 0-5) (redroot pigweed [14]): 1 (mortality of at least 5% and less than 20%)
- L: common lambsquater, herbicidal effect (evaluation scale 0-5) (common lambsquater [15]): 2 (mortality of at least 20% and less than 40%)
- H: Italian ryegrass, herbicidal effect (evaluation scale 0-5) (Italian ryegrass [16]): 4 (mortality of at least 70% and less than 90%)
- E: giant foxtail, herbicidal effect (evaluation scale 0-5) (giant foxtail [17]): 5 (mortality of 90% or above (nearly complete death))
- N: common chickweed, herbicidal effect (evaluation scale 0-5) (common chickweed [18]): 4 (mortality of at least 70% and less than 90%)
- J: common ragweed, herbicidal effect (evaluation scale 0-5) (common ragweed [19]): 5 (mortality of 90% or above (nearly complete death))
- F: wild oat, herbicidal effect (evaluation scale 0-5) (wild oat [20]): 0 (mortality of less than 5% (almost ineffective))
- A: barnyardgrass, herbicidal effect (evaluation scale 0-5) (barnyardgrass [21]): 5 (mortality of 90% or above (nearly complete death))
- B: bulrush, herbicidal effect (evaluation scale 0-5) (bulrush [22]): 5 (mortality of 90% or above (nearly complete death))
- C: ducksalad, herbicidal effect (evaluation scale 0-5) (ducksalad [23]): 5 (mortality of 90% or above (nearly complete death))
- A: barnyardgrass, herbicidal effect (evaluation scale 0-5) (barnyardgrass [24]): 5 (mortality of 90% or above (nearly complete death))
- B: bulrush, herbicidal effect (evaluation scale 0-5) (bulrush [25]): 5 (mortality of 90% or above (nearly complete death))
- C: ducksalad, herbicidal effect (evaluation scale 0-5) (ducksalad [26]): 5 (mortality of 90% or above (nearly complete death))
